Reference: article PMC12820599, “Structural characterisation of nucleotide sugar short‐chain dehydrogenases/reductases from the thermophilic pseudomurein‐containing methanogen Methanothermobacter thermautotrophicus ΔH” (The Febs Journal, 2025)

Legend:
Assay type in all cases: binding
Mth375 [1] = molecular target: T1, Mth375 (Methanothermobacter thermautotrophicus, UniProt O26475); assay: X-ray crystal structure ([…] Å); conditions: coenzyme site (Rossmann fold); no coenzyme added (co-purified); redox state not settled (NAD/NADH/NAD(H) printed); UDP bound
T1 construct: gene MTH_375; recombinant hexahistidine-tagged (pET100D), E. coli BL21-Rosetta 2; 332 residues seen; dimer; Cys131 (and Cys13 in Mth375_NU) modified by beta-mercaptoethanol
T1 sequence (O26475 entry or part of it): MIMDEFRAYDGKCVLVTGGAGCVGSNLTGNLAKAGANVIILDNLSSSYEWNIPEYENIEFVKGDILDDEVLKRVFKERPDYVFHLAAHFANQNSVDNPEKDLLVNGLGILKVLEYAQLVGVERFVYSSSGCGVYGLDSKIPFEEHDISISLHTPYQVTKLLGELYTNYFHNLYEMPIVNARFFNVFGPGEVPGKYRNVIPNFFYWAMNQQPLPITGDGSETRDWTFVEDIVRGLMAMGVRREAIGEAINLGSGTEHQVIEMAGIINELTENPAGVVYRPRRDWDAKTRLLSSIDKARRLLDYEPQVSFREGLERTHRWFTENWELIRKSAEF

Mth373 [2] = molecular target: T2, Mth373 (Methanothermobacter thermautotrophicus, UniProt O26473); assay: X-ray crystal structure ([…] and […] Å); conditions: 2.0 mM NADH added; coenzyme site of each monomer; printed as NADH, NAD(H) and NAD
T2 construct: gene MTH_373; recombinant hexahistidine-tagged, E. coli LOBSTR BL21*; 311-residue monomer; dimer
T2 sequence (O26473 entry or part of it): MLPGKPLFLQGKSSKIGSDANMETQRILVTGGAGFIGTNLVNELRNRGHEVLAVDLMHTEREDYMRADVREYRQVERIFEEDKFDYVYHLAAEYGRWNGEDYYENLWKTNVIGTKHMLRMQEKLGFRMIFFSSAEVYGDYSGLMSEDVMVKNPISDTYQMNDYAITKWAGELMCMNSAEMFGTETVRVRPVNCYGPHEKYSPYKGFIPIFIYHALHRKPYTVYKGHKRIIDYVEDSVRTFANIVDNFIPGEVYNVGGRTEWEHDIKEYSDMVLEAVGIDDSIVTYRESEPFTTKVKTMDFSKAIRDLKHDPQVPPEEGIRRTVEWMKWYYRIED

Mth373 [3] = molecular target: T2, Mth373; assay: X-ray crystal structure ([…] Å); conditions: co-crystallised with 1.0 mM UDP and 2.0 mM NADH; active site of both monomers; pH 5.0; UDP also in one monomer of 9AR1
Mth375 [4] = molecular target: T1, Mth375; assay: X-ray crystal structure ([…] and […] Å); conditions: co-crystallised with 1.0 mM UDP; active site; NAD(H) (6PNL) or AMP (6PMH) also bound; 21 °C

Row | Compound | X-ray crystal structure (2.01 Å) (Mth375 [1]) | X-ray crystal structure (1.96 and 2.00 Å) (Mth373 [2]) | X-ray crystal structure (2.00 Å) (Mth373 [3]) | X-ray crystal structure (2.01 and 2.30 Å) (Mth375 [4])
1 | NC(=O)C1=CN([C@@H]2O[C@H](COP(=O)(O)OP(=O)(O)OC[C@H]3O[C@@H](n4cnc5c(N)ncnc54)[C@H](O)[C@@H]3O)[C@@H](O)[C@H]2O)C=CC1 [NADH] | Mth375_NU contained a single NADH molecule | Both complexes have interpretable electron density for a molecule of NADH | – | –
2 | O=c1ccn([C@@H]2O[C@H](COP(=O)(O)OP(=O)(O)O)[C@@H](O)[C@H]2O)c(=O)[nH]1 [UDP] | – | – | A single molecule of UDP was bound to each active site of the Mth373_NU dimer | A single molecule of UDP was bound to each Mth375 complex
